Assay results published in the NIST ThermoML archive (doi:10.1021/je030222n).

Conditions: Liquid

CCCCO [butan-1-ol]
Closed cell (Static) method
Conditions | vapor or sublimation pressure [kPa]
314.19 K | 2.7
323.2 K | 4.49
338.21 K | 10.38
342.17 K | 12.89
352.81 K | 21.44
361.24 K | 31.52
371.94 K | 49.26

CCCCCCCCC [nonane]
Closed cell (Static) method
Conditions | vapor or sublimation pressure [kPa]
322.59 K | 2.34
338.33 K | 4.99
351.53 K | 9
371.37 K | 19.81

CCCCN=C=O [butyl isocyanate]
Conditions | vapor or sublimation pressure [kPa]
294.15 K | 2.48
323.24 K | 9.52
338.02 K | 17.88
353.02 K | 32.1
362.65 K | 44.82
372.6 K | 61.84
387.87 K | 99.08

CCOC(N)=O [ethyl carbamate]
Closed cell (Static) method
Conditions | vapor or sublimation pressure [kPa]
322.6 K | 0.88
337.2 K | 1.287
342.3 K | 1.494
352.5 K | 1.957
362.6 K | 2.381
371.7 K | 2.953
